# Source: ChEMBL document CHEMBL5038615, “Discovery of a cinnamyl piperidine derivative as new neddylation inhibitor for gastric cancer treatment” (Eur J Med Chem, 2021)
# Calls of active or inactive are those of the source. No cut-off for these calls is given here.
# Experiments:
# HGC-27 [1] = test: Induction of apoptosis in human HGC-27 cells assessed as early apoptotic cells at 9 uM measured after 24 hrs by AnnexinV/FITC staining based flow cytometry method (reference value: 0.7%); format: functional
# MGC-803 [2] = test: Antitumour activity against human MGC-803 cells xenografted in NOD-SCID mouse assessed as reduction on tumour growth at 50 mg/kg/day, IG measured after 21 days relative to control; format: functional; details: MGC-803, po, 504 h, time 21 day, read-out: TGI
# MGC-803 [3] = test: Cell cycle arrest in human MGC-803 cells assessed as accumulation of cells at S phase at 5 uM measured after 24 hrs by Flowcytometry assay (reference value: 36.51%); format: functional
# MGC-803 [4] = test: Induction of apoptosis in human MGC-803 cells assessed as reduction of mitochondrial membrane potential at 5 uM measured after 24 hrs by JC-1 staining based Flowcytometry assay (reference value: 3.8%); format: functional; parameters: scale not given: the % may be the effect or the level left
# HGC-27 [5] = test: Induction of apoptosis in human HGC-27 cells assessed as necrotic cells at 6 uM measured after 24 hrs by AnnexinV/FITC staining based flow cytometry method (reference value: 1.2%); format: functional
# MGC-803 [6] = test: Antitumour activity against human MGC-803 cells xenografted in NOD-SCID mouse assessed as reduction on tumour growth at 100 mg/kg/day, IG measured after 21 days relative to control; format: functional; details: MGC-803, po, 504 h, time 21 day, read-out: TGI
# MGC-803 [7] = test: Cell cycle arrest in human MGC-803 cells assessed as accumulation of cells at G0/G1 phase at 5 uM measured after 24 hrs by Flowcytometry assay (reference value: 46.01%); format: functional
# MGC-803 [8] = test: Induction of apoptosis in human MGC-803 cells assessed as upregulation of Bak at 2.5 to 7.5 uM measured after 24 hrs by Western blot assay; format: functional, cell-based; details: dose 2.5-7.5 µM
# [9] = biological target: T1, NEDD8-activating enzyme E1 regulatory subunit (Homo sapiens) (UniProt Q13564); test: Inhibition of NAE-mediated neddylation in human MGC-803 cells assessed as cullin4B-Nedd8 adduct formation at 2.5 to 7.5 uM measured after 24 hrs by western blot assay; format: cell-based; details: dose 2.5-7.5 µM
# T1 sequence (whole entry): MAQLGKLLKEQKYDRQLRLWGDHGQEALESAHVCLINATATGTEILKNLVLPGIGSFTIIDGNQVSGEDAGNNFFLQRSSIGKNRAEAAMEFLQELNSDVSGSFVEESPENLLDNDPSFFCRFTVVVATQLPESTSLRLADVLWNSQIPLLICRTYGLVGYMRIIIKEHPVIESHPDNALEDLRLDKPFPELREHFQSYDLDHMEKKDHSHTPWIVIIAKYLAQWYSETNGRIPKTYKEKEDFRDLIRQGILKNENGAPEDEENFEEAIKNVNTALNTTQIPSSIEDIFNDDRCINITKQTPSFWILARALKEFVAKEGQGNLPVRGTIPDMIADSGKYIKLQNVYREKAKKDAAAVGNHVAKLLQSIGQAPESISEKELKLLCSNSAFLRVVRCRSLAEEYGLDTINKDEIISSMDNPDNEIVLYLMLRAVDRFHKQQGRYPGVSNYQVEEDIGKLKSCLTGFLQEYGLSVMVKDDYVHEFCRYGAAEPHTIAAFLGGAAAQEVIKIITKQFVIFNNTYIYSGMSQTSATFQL
# MCF7 = test: Antiproliferative activity against human MCF7 cells assessed as inhibition of cell proliferation measured after 72 hrs by MTT assay; format: functional, cell-based; details: MCF7, 72 h
# MGC-803 [10] = test: Cell cycle arrest in human MGC-803 cells assessed as accumulation of cells at S phase at 2.5 uM measured after 24 hrs by Flowcytometry assay (reference value: 36.51%); format: functional
# HGC-27 [11] = test: Inhibition of cell migration in human HGC-27 cells at 1.5 to 6 uM measured after 24 to 48 hrs by wound healing assay based inverted microscopic analysis; format: functional; details: dose 1.5-6 µM, time 24-48 hrs
# MGC-803 [12] = test: Induction of apoptosis in human MGC-803 cells assessed as late apoptotic cells at 5 uM measured after 48 hrs by AnnexinV/FITC staining based flow cytometry method (reference value: 0.9%); format: functional
# HGC-27 [13] = test: Induction of apoptosis in human HGC-27 cells assessed as late apoptotic cells at 6 uM measured after 48 hrs by AnnexinV/FITC staining based flow cytometry method (reference value: 1%); format: functional
# HGC-27 [14] = test: Induction of apoptosis in human HGC-27 cells assessed as necrotic cells at 9 uM measured after 24 hrs by AnnexinV/FITC staining based flow cytometry method (reference value: 1.2%); format: functional
# MGC-803 [15] = test: Induction of apoptosis in human MGC-803 cells assessed as viable cells at 5 uM measured after 24 hrs by AnnexinV/FITC staining based flow cytometry method (reference value: 94.8%); format: functional; details: read-out: Activity
# MGC-803 [16] = test: Induction of apoptosis in human MGC-803 cells assessed as early apoptotic cells at 7.5 uM measured after 24 hrs by AnnexinV/FITC staining based flow cytometry method (reference value: 1.3%); format: functional
# MGC-803 [17] = test: Induction of apoptosis in human MGC-803 cells assessed as necrotic cells at 2.5 uM measured after 24 hrs by AnnexinV/FITC staining based flow cytometry method (reference value: 1.9%); format: functional
# MGC-803 [18] = test: Induction of apoptosis in human MGC-803 cells assessed as necrotic cells at 7.5 uM measured after 48 hrs by AnnexinV/FITC staining based flow cytometry method (reference value: 0.2%); format: functional
# MGC-803 [19] = test: Induction of apoptosis in human MGC-803 cells assessed as ROS levels at 7.5 uM measured after 24 hrs by DCFH-DA staining based flow cytometry assay (reference value: 3.3%); format: functional
# HGC-27 [20] = test: Induction of apoptosis in human HGC-27 cells assessed as late apoptotic cells at 9 uM measured after 48 hrs by AnnexinV/FITC staining based flow cytometry method (reference value: 1%); format: functional
# MGC-803 [21] = test: Induction of apoptosis in human MGC-803 cells assessed as early apoptotic cells at 5 uM measured after 24 hrs by AnnexinV/FITC staining based flow cytometry method (reference value: 1.3%); format: functional
# [22] = Cytotoxicity against human GES1 cells assessed as inhibition of cell proliferation measured after 72 hrs by MTT assay; format: toxicity, cell-based
# MGC-803 [23] = test: Induction of apoptosis in human MGC-803 cells assessed as viable cells at 2.5 uM measured after 24 hrs by AnnexinV/FITC staining based flow cytometry method (reference value: 94.8%); format: functional; details: read-out: Activity
# HGC-27 [24] = test: Induction of apoptosis in human HGC-27 cells assessed as viable cells at 3 uM measured after 48 hrs by AnnexinV/FITC staining based flow cytometry method (reference value: 93.18%); format: functional; details: read-out: Activity
# HGC-27 [25] = test: Induction of apoptosis in human HGC-27 cells assessed as reduction of mitochondrial membrane potential at 3 uM measured after 24 hrs by JC-1 staining based Flowcytometry assay (reference value: 2.4%); format: functional; parameters: scale not given: the % may be the effect or the level left
# [26] = biological target: T1, NEDD8-activating enzyme E1 regulatory subunit (Homo sapiens); test: Inhibition of NAE-mediated neddylation in human MGC-803 cells assessed as cullin2-Nedd8 adduct formation at 2.5 to 7.5 uM measured after 24 hrs by western blot assay; format: cell-based; details: dose 2.5-7.5 µM
# MGC-803 [27] = test: Induction of apoptosis in human MGC-803 cells assessed as viable cells at 2.5 uM measured after 48 hrs by AnnexinV/FITC staining based flow cytometry method (reference value: 97.4%); format: functional; details: read-out: Activity
compound,measurement,setting,value
CCCCCc1ccc(NC(=O)C2CCN(C/C=C/c3ccccc3)CC2)cc1,Activity,HGC-27 [1],2.3%
same,inhibition in vivo at 50 mg/kg/day,MGC-803 [2],32.3%
same,Activity,MGC-803 [3],33.81%
same,Activity,MGC-803 [4],17.4%
same,Activity,HGC-27 [5],0.2%
same,inhibition in vivo at 100 mg/kg/day,MGC-803 [6],39.2%
same,Activity,MGC-803 [7],44.87%
same,Activity,MGC-803 [8],Dose-Dependent Effect
same,inhibition,[9],inactive
same,IC50,MCF7,3.74 µM
same,Activity,MGC-803 [10],33.01%
same,inhibition,HGC-27 [11],Dose-Dependent Effect
same,Activity,MGC-803 [12],51%
same,Activity,HGC-27 [13],21.2%
same,Activity,HGC-27 [14],2.7%
same,viability at 5 µM,MGC-803 [15],80.1%
same,Activity,MGC-803 [16],1.7%
same,Activity,MGC-803 [17],0.8%
same,Activity,MGC-803 [18],0%
same,Activity,MGC-803 [19],22.2%
same,Activity,HGC-27 [20],99.5%
same,Activity,MGC-803 [21],0.8%
same,IC50 at 72 h,[22],8.7 µM
same,viability at 2.5 µM,MGC-803 [23],93.5%
same,viability at 3 µM,HGC-27 [24],64.4%
same,Activity,HGC-27 [25],4.4%
same,inhibition,[26],inactive
same,viability at 2.5 µM,MGC-803 [27],50.6%
